Measured values taken from ChEMBL document CHEMBL6177928, “Probing structural requirements for thiazole-based mimetics of sunitinib as potent VEGFR-2 inhibitors” (RSC Med Chem, 2025).
Blank lines part the entries; values can stand above or below the compound they belong to. Calls of active or inactive are those of the source. The calls are words filed in the database; no cut-off is given here.

What was measured:
HeLa [1] = experiment: cells; settings: Homo sapiens, 48 h
Description: Antitumor activity against human HeLa cells assessed as inhibition of cell viability incubated for 48 hrs by MTT assay

MCF7 [2] = experiment: cells; settings: Homo sapiens, MCF7, 48 h
Description: Antitumor activity against human MCF7 cells assessed as inhibition of cell viability incubated for 48 hrs by MTT assay

HepG2 = experiment: cells; settings: Homo sapiens, HepG2, 48 h
Description: Antitumor activity against human HepG2 cells assessed as inhibition of cell viability incubated for 48 hrs by MTT assay

HEp-2 = experiment: cells; settings: Homo sapiens, HEp-2, 48 h
Description: Antitumor activity against human HEp-2 cells assessed as inhibition of cell viability incubated for 48 hrs by MTT assay

HCT-116 [3] = experiment: cells; settings: Homo sapiens, HCT-116, 48 h
Description: Antitumor activity against human HCT-116 cells assessed as inhibition of cell viability incubated for 48 hrs by MTT assay

WI-38 = experiment: Cytotoxicity against human WI-38 cells up to 50 uM incubated for 48 hrs by MTT assay; type: toxicity, cell-based; settings: wi-38, 48 h
[4] = Cytotoxicity against human WI-38 cells incubated for 48 hrs by MTT assay; type: toxicity, cell-based
WISH = experiment: Cytotoxicity against human WISH cells at up to 50 uM incubated for 48 hrs by MTT assay; type: toxicity, cell-based
[5] = Cytotoxicity against human WISH cells incubated for 48 hrs by MTT assay; type: toxicity, cell-based
HeLa [6] = experiment: Induction of cell cycle arrest in human HeLa cells assessed as accumulation of cells at S phase measured after 24 hrs by PI/Rnase staining based flow cytometry analysis (reference value: 31.04 %); type: functional
MCF7 [7] = experiment: Induction of cell cycle arrest in human MCF7 cells assessed as accumulation of cell debris measured after 24 hrs by PI/Rnase staining based flow cytometry analysis (reference value: 1.61%); type: functional
HCT-116 [8] = experiment: Induction of apoptosis in human HCT-116 cells assessed as necrotic cells incubated for 24 hrs by Annexin-V-FITC/PI staining based flow cytometry analysis (reference value: 1.34%); type: functional
HCT-116 [9] = experiment: Induction of cell cycle arrest in human HCT-116 cells assessed as accumulation of cell debris measured after 24 hrs by PI/Rnase staining based flow cytometry analysis (reference value: 1.33%); type: functional
MCF7 [10] = experiment: Induction of cell cycle arrest in human MCF7 cells assessed as accumulation of cells at S phase measured after 24 hrs by PI/Rnase staining based flow cytometry analysis (reference value: 28.77 %); type: functional
MCF7 [11] = experiment: Induction of cell cycle arrest in human MCF7 cells assessed as accumulation of cells at G2/M phase measured after 24 hrs by PI/Rnase staining based flow cytometry analysis (reference value: 14.86 %); type: functional
HeLa [12] = experiment: Induction of apoptosis in human HeLa cells assessed as necrotic cells incubated for 24 hrs by Annexin-V-FITC/PI staining based flow cytometry analysis (reference value: 1.12 %); type: functional
HCT-116 [13] = experiment: Induction of cell cycle arrest in human HCT-116 cells assessed as accumulation of cells at G2/M phase measured after 24 hrs by PI/Rnase staining based flow cytometry analysis (reference value: 17.66 %); type: functional
HeLa [14] = experiment: Induction of apoptosis in human HeLa cells assessed as late apoptotic cells incubated for 24 hrs by Annexin-V-FITC/PI staining based flow cytometry analysis (reference value: 0.13 %); type: functional
HCT-116 [15] = experiment: Induction of apoptosis in human HCT-116 cells assessed as early apoptotic cells incubated for 24 hrs by Annexin-V-FITC/PI staining based flow cytometry analysis (reference value: 0.44%); type: functional
HeLa [16] = experiment: Induction of cell cycle arrest in human HeLa cells assessed as accumulation of cells at G2/M phase measured after 24 hrs by PI/Rnase staining based flow cytometry analysis (reference value: 16.27 %); type: functional
HCT-116 [17] = experiment: Induction of cell cycle arrest in human HCT-116 cells assessed as accumulation of cells at S phase measured after 24 hrs by PI/Rnase staining based flow cytometry analysis (reference value: 17.66 %); type: functional
MCF7 [18] = experiment: Induction of cell cycle arrest in human MCF7 cells assessed as accumulation of cells at G1 phase measured after 24 hrs by PI/Rnase staining based flow cytometry analysis (reference value: 56.37%); type: functional
MCF7 [19] = experiment: Induction of apoptosis in human MCF7 cells assessed as early apoptotic cells incubated for 24 hrs by Annexin-V-FITC/PI staining based flow cytometry analysis (reference value: 0.51%); type: functional
HeLa [20] = experiment: Induction of cell cycle arrest in human HeLa cells assessed as accumulation of cell debris measured after 24 hrs by PI/Rnase staining based flow cytometry analysis (reference value: 1.33%); type: functional
HeLa [21] = experiment: Induction of apoptosis in human HeLa cells assessed as early apoptotic cells incubated for 24 hrs by Annexin-V-FITC/PI staining based flow cytometry analysis (reference value: 0.41 %); type: functional
HCT-116 [22] = experiment: Induction of apoptosis in human HCT-116 cells assessed as late apoptotic cells incubated for 24 hrs by Annexin-V-FITC/PI staining based flow cytometry analysis (reference value: 0.16%); type: functional
MCF7 [23] = experiment: Induction of apoptosis in human MCF7 cells assessed as necrotic cells incubated for 24 hrs by Annexin-V-FITC/PI staining based flow cytometry analysis (reference value: 1.57%); type: functional
Ehrlich [24] = experiment: Antitumor activity against mouse EAC cells xenografted in Swiss albino mouse assessed as reduction in tumor volume at 10 mg/kg, ip measured after 5 to 20 days; type: functional, organism-based; settings: time 5-20 day
MCF7 [25] = experiment: Induction of apoptosis in human MCF7 cells assessed as late apoptotic cells incubated for 24 hrs by Annexin-V-FITC/PI staining based flow cytometry analysis (reference value: 0.21%); type: functional
HeLa [26] = experiment: Induction of cell cycle arrest in human HeLa cells assessed as accumulation of cells at G1 phase measured after 24 hrs by PI/Rnase staining based flow cytometry analysis (reference value: 52.69 %); type: functional
Ehrlich [27] = experiment: Antitumor activity against mouse EAC cells xenografted in Swiss albino mouse assessed as tumor growth inhibition at 10 mg/kg, ip measured after 10 to 20 days; type: functional; settings: read-out: TGI, time 10-20 day
HCT-116 [28] = experiment: Induction of cell cycle arrest in human HCT-116 cells assessed as accumulation of cells at G1 phase measured after 24 hrs by PI/Rnase staining based flow cytometry analysis (reference value: 47.28%); type: functional

Compound: N#Cc1sc(Nc2ccccc2)nc1Nc1cnc(N)s1
IC50 (HeLa [1]): 14 µM
Activity (WI-38): Non-toxic
IC50 at 48 h [4]: > 100 µM
IC50 (MCF7 [2]): 9.67 µM
IC50 (HepG2): 18.5 µM
Activity (WISH): Non-toxic
IC50 (HEp-2): 35.2 µM
IC50 at 48 h [5]: 82.7 µM
IC50 (HCT-116 [3]): 19.7 µM

Compound: CC(=O)N1CCN(CC(=O)Nc2nc(Nc3ccccc3)sc2C#N)CC1
IC50 (HeLa [1]): 74.5 µM
IC50 (MCF7 [2]): 61.9 µM
IC50 (HepG2): 78.4 µM
IC50 (HEp-2): 89 µM
IC50 (HCT-116 [3]): 65.2 µM

Compound: CCN(CC)CCNC(=O)c1c(C)[nH]c(/C=C2\C(=O)Nc3ccc(F)cc32)c1C [SUNITINIB]
IC50 (HeLa [1]): 7.48 µM
IC50 (MCF7 [2]): 5.19 µM
IC50 (HepG2): 12.3 µM
IC50 (HEp-2): 7.58 µM
IC50 (HCT-116 [3]): 8.53 µM

Compound: N#Cc1sc(Nc2ccccc2)nc1NC(=O)CNNCC(=O)c1ccc(Cl)cc1
IC50 (HeLa [1]): 10.6 µM
Activity (WI-38): Non-toxic
Activity (HeLa [6]): 41.19%
Activity (MCF7 [7]): 1.58%
IC50 at 48 h [4]: 60.8 µM
Activity (HCT-116 [8]): 2.2%
IC50 (MCF7 [2]): 13.3 µM
Activity (HCT-116 [9]): 2.25%
Activity (MCF7 [10]): 23.84%
Activity (MCF7 [11]): 12.55%
Activity (HeLa [12]): 2.66%
IC50 (HepG2): 15.2 µM
Activity (HCT-116 [13]): 16.05%
Activity (HeLa [14]): 12.35%
Activity (WISH): Non-toxic
Activity (HCT-116 [15]): 21.42%
Activity (HeLa [16]): 15.23%
Activity (HCT-116 [17]): 31.99%
IC50 (HEp-2): 26.9 µM
Activity (MCF7 [18]): 63.61%
IC50 at 48 h [5]: 77.2 µM
Activity (MCF7 [19]): 6.22%
Activity (HeLa [20]): 2.17%
Activity (HeLa [21]): 19.17%
Activity (HCT-116 [22]): 8.29%
IC50 (HCT-116 [3]): 11.6 µM
Activity (MCF7 [23]): 4.47%
Activity (Ehrlich [24]): Active
Activity (MCF7 [25]): 19.17%
Activity (HeLa [26]): 43.64%
inhibition in vivo at 10 mg/kg (Ehrlich [27]): > 50%
Activity (HCT-116 [28]): 51.96%

Compound: N#Cc1sc(Nc2ccccc2)nc1N1C(=N)SCC1=O
IC50 (HeLa [1]): 31.4 µM
IC50 (MCF7 [2]): 22.5 µM
IC50 (HepG2): 35.3 µM
IC50 (HEp-2): 69.5 µM
IC50 (HCT-116 [3]): 44.1 µM

Compound: N#Cc1sc(Nc2ccccc2)nc1NC(=O)CN1CCN(c2cccc(Cl)c2)CC1
IC50 (HeLa [1]): 72.1 µM
IC50 (MCF7 [2]): 59.1 µM
IC50 (HepG2): 76 µM
IC50 (HEp-2): 87.9 µM
IC50 (HCT-116 [3]): 60.4 µM

Compound: N#Cc1sc(Nc2ccccc2)nc1NC(=O)CN1CCN(Cc2ccccc2)CC1
IC50 (HeLa [1]): 53.2 µM
IC50 (MCF7 [2]): 45.3 µM
IC50 (HepG2): 61.5 µM
IC50 (HEp-2): 82.5 µM
IC50 (HCT-116 [3]): 56.9 µM

Second part, led by results:

IC50 (HeLa [1]): 47 µM
IC50 (MCF7 [2]): 39 µM
IC50 (HepG2): 52.3 µM
IC50 (HEp-2): 64.7 µM
IC50 (HCT-116 [3]): 36.5 µM
Compound: N#Cc1sc(Nc2ccccc2)nc1NC(=O)CNNCC(=O)c1ccccc1

IC50 (HeLa [1]): 21.4 µM
IC50 (MCF7 [2]): 9.1 µM
IC50 (HepG2): 28.3 µM
IC50 (HEp-2): 68.4 µM
IC50 (HCT-116 [3]): 41.8 µM
Compound: N#Cc1sc(Nc2ccccc2)nc1NC(=O)CNNCc1ccccc1
Activity (WI-38): Non-toxic
IC50 at 48 h [4]: 75.6 µM
Activity (WISH): Non-toxic
IC50 at 48 h [5]: 47.4 µM

IC50 (HeLa [1]): > 100 µM
IC50 (MCF7 [2]): 84.1 µM
IC50 (HepG2): 96.2 µM
IC50 (HEp-2): > 100 µM
IC50 (HCT-116 [3]): 81.6 µM
Compound: Cc1ccc(C(=O)CNNCC(=O)Nc2nc(Nc3ccccc3)sc2C#N)cc1

IC50 (HeLa [1]): 69.8 µM
IC50 (MCF7 [2]): 50.4 µM
IC50 (HepG2): 74.3 µM
IC50 (HEp-2): 92.2 µM
IC50 (HCT-116 [3]): 68.6 µM
Compound: N#Cc1sc(Nc2ccccc2)nc1NC(=O)CNNC(=O)c1ccccc1

IC50 (HeLa [1]): 49.8 µM
IC50 (MCF7 [2]): 43.2 µM
IC50 (HepG2): 57.3 µM
IC50 (HEp-2): 80.4 µM
IC50 (HCT-116 [3]): 55.2 µM
Compound: N#Cc1sc(Nc2ccccc2)nc1NC(=O)CNNC(=O)c1ccc([N+](=O)[O-])cc1
